Read-outs that look alike come from different tables or passages of the source.
Test system: pregnant rats
Type: in vivo, rat
Details: for Mean Number of Pups / Day of Parturition: pregnant rats; for Day of Parturition: number of animals at day
Protocol: The test animals received 20 μ in two equal portions, of L-pGlu-L-His-L-Trp-L-Ser-L-Tyr-D-Leu-L-Leu-L-Arg-L-Pro-NH-ethyl as a 0.04 g/l solution in 0.9% aqueous sodium chloride containing 0.1% bovine serum albumin. In all instances, the subcutaneous injections were given on day 18 of gestation.
In a repetition of the procedure of Example 1, the same test was carried out except that the animals were injected on day 19 of gestation.

[1] = same dose s.c. on day 19 of gestation

With CCNC(=O)[C@@H]1CCCN1C(=O)[C@H](CCCNC(=N)N)NC(=O)[C@H](CC(C)C)NC(=O)[C@@H](CC(C)C)NC(=O)[C@H](Cc1ccc(O)cc1)NC(=O)[C@H](CO)NC(=O)[C@H](Cc1c[nH]c2ccccc12)NC(=O)[C@H](Cc1c[nH]cn1)NC(=O)[C@@H]1CCC(=O)N1 [Test compound, L-pGlu-L-His-L-Trp-L-Ser-L-Tyr-D-Leu-L-Leu-L-Arg-L-Pro-NH-ethyl] the “Mean Number of Pups” value (20 μ in two equal portions s.c. on day 18 of gestation) was 8.7, the “Day of Parturition” value (20 μ in two equal portions s.c. on day 18 of gestation, normal pregnancy 21.5 days) was 1 at 21; 2 at 20 and the “Mean Number of Pups” value [1] was 9.3. The “Day of Parturition” value [1] was 3 at 21, the “Condition of pups delivered” value (rat, in vivo) was “healthy and indistinguishable from the control animals' pups” and the “Parturition result at other dose levels” value (rats, half and two times the dose level of example 1, compared with Table I) was “essentially the same result as shown in Table I”.
